In ChEMBL document CHEMBL1914365, “Aminoacyl-tRNA synthetase inhibitors as potential antibiotics” (Eur J Med Chem, 2011):
In brackets after ≈: the same amount, converted by molar mass.

Legend:
[1] = tested on: Staphylococcus; assay: Antibacterial activity against Staphylococcus aureus; type: functional
[2] = Inhibition of Trypanosoma brucei Leucyl-tRNA synthetase
[3] = tested on: Trypanosoma brucei; assay: Antitrypanosomal activity against Trypanosoma brucei assessed as growth inhibition; type: functional, organism-based
[4] = tested on: Staphylococcus epidermidis; assay: Antibacterial activity against Staphylococcus epidermidis; type: functional
[5] = Inhibition of Staphylococcus aureus Methionyl-tRNA synthetase
[6] = tested on: Staphylococcus aureus; assay: Antibacterial activity against mupirocin or oxacillin-resistant Staphylococcus aureus; type: functional
[7] = Inhibition of Escherichia coli Methionyl-tRNA synthetase
[8] = tested on: Streptococcus pyogenes; assay: Antibacterial activity against Streptococcus pyogenes; type: functional
[9] = tested on: Escherichia coli; assay: Antibacterial activity against Escherichia coli; type: functional
[10] = biological target: Isoleucine--tRNA ligase (Escherichia coli K-12, UniProt P00956); assay: Competitive inhibition of Escherichia coli Isoleucyl-tRNA synthetase
Isoleucine--tRNA ligase, sequence (P00956 whole entry): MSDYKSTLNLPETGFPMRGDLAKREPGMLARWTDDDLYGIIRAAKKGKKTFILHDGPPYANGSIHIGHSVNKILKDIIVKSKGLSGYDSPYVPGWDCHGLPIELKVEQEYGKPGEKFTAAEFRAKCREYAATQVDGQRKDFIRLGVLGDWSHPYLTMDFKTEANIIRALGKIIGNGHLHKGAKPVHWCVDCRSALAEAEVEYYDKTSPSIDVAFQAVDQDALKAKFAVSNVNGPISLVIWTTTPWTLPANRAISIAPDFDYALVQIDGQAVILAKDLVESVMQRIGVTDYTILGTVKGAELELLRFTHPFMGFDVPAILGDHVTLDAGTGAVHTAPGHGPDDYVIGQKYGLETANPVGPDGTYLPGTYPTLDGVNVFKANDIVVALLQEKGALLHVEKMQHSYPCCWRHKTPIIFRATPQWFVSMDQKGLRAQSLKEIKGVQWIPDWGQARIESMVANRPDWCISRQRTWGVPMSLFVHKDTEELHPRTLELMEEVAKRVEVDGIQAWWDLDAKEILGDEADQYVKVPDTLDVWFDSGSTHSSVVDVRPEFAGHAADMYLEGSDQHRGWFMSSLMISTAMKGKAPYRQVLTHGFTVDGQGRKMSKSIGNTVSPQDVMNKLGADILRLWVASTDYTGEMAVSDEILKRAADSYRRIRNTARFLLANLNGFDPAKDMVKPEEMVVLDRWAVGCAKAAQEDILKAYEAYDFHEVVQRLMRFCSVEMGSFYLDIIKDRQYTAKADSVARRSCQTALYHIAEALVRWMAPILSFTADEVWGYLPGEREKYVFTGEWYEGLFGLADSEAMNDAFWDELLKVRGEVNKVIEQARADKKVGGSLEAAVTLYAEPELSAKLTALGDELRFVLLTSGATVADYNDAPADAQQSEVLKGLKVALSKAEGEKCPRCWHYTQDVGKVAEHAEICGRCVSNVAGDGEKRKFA

[11] = tested on: Staphylococcus aureus; assay: Antibacterial activity against methicillin-resistant Staphylococcus aureus; type: functional

O=C1OCC(NNc2ccc([N+](=O)[O-])cc2)=C1c1ccc(Br)cc1
MIC50 [1]: 0.42 µg/mL (≈ 1.08 µM)

CCOC(=O)COc1ccc2c(c1)B(O)OC2
IC50 [2]: 1600 nM

CC(=O)C(C)(C)Oc1ccc2c(c1)B(O)OC2
EC50 [3]: 370 nM

CC(C)C[C@H](NC(=O)[C@H](CC(C)C)N1C[C@@H](CNC(=O)Nc2ccccc2)NC1=O)C(=O)O
MIC50 [4]: 6.25 µM (≈ 2.88 µg/mL)

CC(C)C[C@H](NC(=O)[C@H](CC(C)C)N1C[C@@H](CNC(=O)Nc2ncccn2)NC1=O)C(=O)O
MIC50 [4]: 25 µM (≈ 11.6 µg/mL)

CC(C)C[C@H](NC(=O)[C@H](CC(C)C)N1C[C@@H](CNS(=O)(=O)c2ccccc2)NC1=O)C(=O)O
MIC50 [4]: 100 µM (≈ 48.3 µg/mL)

C=C(F)c1sc(CNCCCNc2cc(=O)c3ccccc3[nH]2)c(C)c1Br [BEDEROCIN]
Ki [5]: 0.01 nM | MIC90 [6]: 0.5 µg/mL (≈ 1.11 µM) | Ki [7]: 300 nM | MIC [8]: 0.03 µg/mL (≈ 0.0666 µM)

C/C(=C\C(=O)OCCCCCCCCC(=O)O)C[C@@H]1OC[C@H](C[C@@H]2O[C@H]2[C@@H](C)[C@H](C)O)[C@@H](O)[C@H]1O [MUPIROCIN]
MIC [9]: 128 µg/mL (≈ 256 µM) | Ki [10]: 2.5 nM | MIC [11]: 0.25 µg/mL (≈ 0.499 µM)
